Measurements published in PubChem BioAssay (NCI).
Where “and” joins values, the source holds several entries; their conditions need not be identical. Identical values can stand only once.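 Dose response: 5 concentrations. Exposure: 48 h. Format: 96-well plates. Endpoint: linear interpolation; highest concentration if not reached. Here, GI50 denotes the concentration required for 50% inhibition of growth. The concentration for full growth arrest is given as TGI.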

Columns and labels:
Assay in all cases: NCI-60 cell line screen, 48 h
IGROV1 ovarian = test system: IGROV1 ovarian
DU-145 prostate = test system: DU-145 prostate
T-47D breast = test system: T-47D breast
SK-MEL-2 melanoma = test system: SK-MEL-2 melanoma
TK-10 renal = test system: TK-10 renal
SF-295 CNS = test system: SF-295 CNS
RPMI-8226 leukemia = test system: RPMI-8226 leukemia
A498 renal = test system: A498 renal
SK-MEL-28 melanoma = test system: SK-MEL-28 melanoma
NCI-H460 lung = test system: NCI-H460 lung

SMILES | GI50 (IGROV1 ovarian) | TGI (IGROV1 ovarian) | GI50 (DU-145 prostate) | TGI (DU-145 prostate) | GI50 (T-47D breast) | TGI (T-47D breast) | GI50 (SK-MEL-2 melanoma) | TGI (SK-MEL-2 melanoma) | GI50 (TK-10 renal) | TGI (TK-10 renal) | GI50 (SF-295 CNS) | TGI (SF-295 CNS) | GI50 (RPMI-8226 leukemia) | TGI (RPMI-8226 leukemia) | GI50 (A498 renal) | TGI (A498 renal) | GI50 (SK-MEL-28 melanoma) | TGI (SK-MEL-28 melanoma) | GI50 (NCI-H460 lung) | TGI (NCI-H460 lung)
COc1cc2cc(Oc3cccc(NC(=O)Nc4cc(C(F)(F)F)cc(C(F)(F)F)c4)c3)c(C)nc2cc1OC | 0.509 µM | 2.3 µM | 2.38 µM | 9.36 µM | 1.48 µM | 5.67 µM | 1.82 µM | 4.24 µM | 2.32 µM | 9.18 µM | 0.481 µM | 1.94 µM | 0.406 µM | 5.51 µM | 1.6 µM | 4.29 µM | 1.19 µM | 3.09 µM | 0.96 µM | 2.72 µM
CC(=O)Oc1cc2cnc3c4cc(OC(C)=O)c(OC(C)=O)cc4ccc3c2cc1OC(C)=O | 1.01 µM | 14 µM | 2.61 µM | > 100 µM | 0.898 µM | > 100 µM | 4.5 µM | 79.9 µM | 2.78 µM | > 100 µM | 3.36 µM | > 100 µM | 1.66 µM | > 100 µM | 0.443 µM | 1.84 µM | 3.15 µM | > 100 µM | 0.569 µM | > 100 µM
COc1cc2ncnc(Oc3cccc(NC(=O)Nc4cc(C(C)(C)C(F)(F)F)on4)c3)c2cc1OC | 0.565 µM and 0.634 µM | 4.61 µM and 3.69 µM | 3.31 µM and 3.84 µM | > 58.5 µM | 1.96 µM and 1.67 µM | 11.7 µM and > 10 µM | 0.443 µM and 0.565 µM | 2.26 µM and 3.06 µM | 0.948 µM and 0.82 µM | 4.67 µM and 4.32 µM | 2.91 µM and 2.98 µM | 13.1 µM and > 10 µM | 2.6 µM and 2.93 µM | 11.3 µM and > 10 µM | 0.322 µM and 1.05 µM | 1.36 µM and 3.62 µM | 0.179 µM and 0.201 µM | 8.03 µM and 3.58 µM | 2.2 µM and 3.28 µM | 13.9 µM and > 10 µM
O=C1Nc2ccc3c(c2/C1=C\c1cc2c(cc1Br)OCO2)OCO3 | 0.199 µM | 1.7 µM | 0.49 µM | 2.11 µM | 0.969 µM | 6.58 µM | 3.4 µM | > 100 µM | 1.52 µM | 3.84 µM | 0.527 µM | 2.5 µM | 0.27 µM | 0.801 µM | 0.287 µM | 1.08 µM | 0.911 µM | 5.32 µM | 0.35 µM | 1.35 µM
COc1ccc(-c2cc(/C=C/C(=O)c3ccc(N)cc3)[nH]n2)cc1 | 2.27 µM | 6.45 µM | 1.32 µM | 3.46 µM | 1.47 µM | 9.77 µM | – | – | 2.81 µM | 13 µM | 3.09 µM | 13.1 µM | 0.6 µM | 3.22 µM | 2.03 µM | 4.95 µM | 1.87 µM | 4.01 µM | 2.07 µM | 4.95 µM
COc1cc2c3cc1Oc1c(OC)c(OC)cc4c1C(Cc1ccc(O)c(c1)Oc1ccc(cc1)CC3N(C)CC2)N(C)CC4 (stereo not drawn) | 27.7 µM | > 100 µM | 18.2 µM | > 100 µM and 84.4 µM | 15 µM | 75.7 µM and 36.2 µM | 20.2 µM | > 100 µM and 36.6 µM | 20.8 µM | > 100 µM and 39.3 µM | 13.3 µM | 59.1 µM and 29.8 µM | 11.8 µM | 40.1 µM | – | 48.4 µM | 8.49 µM | > 100 µM and 23.1 µM | – | 32.4 µM and 38.8 µM
COc1ccc2c(c1)C(=O)c1c-2c(OCCN(C)C)nc2cc(OC)c(OC)cc12 | – | – | 2.93 µM | 34.7 µM | > 100 µM | > 100 µM | > 100 µM | > 100 µM | 13.9 µM | 27.5 µM | 0.0293 µM | 0.21 µM | 1.26 µM | 5.23 µM | 13.2 µM | 99.1 µM | 18.9 µM | 35.4 µM | 1.22 µM | 15.3 µM
COc1cc(-c2nn(-c3cccc(NC(=O)CCN4CCN(c5ccccc5)CC4)c3)cc2-c2ccncc2)ccc1Cl | 4.12 µM | > 100 µM | 4.35 µM | > 100 µM | 2.09 µM | > 100 µM | 2.45 µM | 6.85 µM | 3.69 µM | > 100 µM | 2.41 µM | 18 µM | – | – | 3.29 µM | 17.9 µM | 3.19 µM | > 100 µM | 3.11 µM | 31.3 µM
Clc1ccc(CN2CCCN(Cc3ccc(Cl)cc3)C2c2cc3ccccc3c3ccccc23)cc1 | – | > 100 µM | – | > 100 µM | – | > 100 µM | – | 44.1 µM | – | > 100 µM | – | > 100 µM | – | > 100 µM | – | 56.5 µM | – | 54.5 µM | – | –
O=CN1N=C(c2cccc(Nc3ccnc4cc(Cl)ccc34)c2)CC1c1ccc(Cl)cc1 (stereo not drawn) | 0.757 µM | > 100 µM | 4.17 µM | > 100 µM | 2.63 µM | > 100 µM | 2.05 µM | > 100 µM | – | – | 1.06 µM | 8.12 µM | 2.45 µM | > 100 µM | 0.832 µM | 6.18 µM | 5.63 µM | > 100 µM | 0.787 µM | > 100 µM
COc1cc(-c2nn(-c3cccc(NC(=O)CCNc4ccc(N5CCOCC5)cc4)c3)cc2-c2ccncc2)ccc1Cl | 3.31 µM | > 100 µM | 4.04 µM | > 100 µM | 1.99 µM | 7.91 µM | 2.07 µM | 5.64 µM | 3.13 µM | 47.9 µM | 2.09 µM | 26 µM | – | – | 2.52 µM | 17.4 µM | 3.13 µM | > 100 µM | 2.95 µM | 30 µM
N#[N+]c1ccc(Nc2ccccc2)cc1 | > 50 µg/mL | > 50 µg/mL | > 50 µg/mL | > 50 µg/mL | > 50 µg/mL | > 50 µg/mL | > 50 µg/mL | > 50 µg/mL | > 50 µg/mL | > 50 µg/mL | > 50 µg/mL | > 50 µg/mL | > 50 µg/mL | > 50 µg/mL | > 50 µg/mL | > 50 µg/mL | > 50 µg/mL | > 50 µg/mL | – | –
CCCCCC[C@H]1C(=O)O[C@H](C)[C@H](NC(=O)c2cccc(NC=O)c2OC)C(=O)O[C@@H](C)[C@@H]1OC(=O)CCC (tested in a mixture with another compound) | – | – | 11.7 µM | 30.1 µM | 11.2 µM | 35.5 µM | 18.1 µM | 60.5 µM | 13.3 µM | 29.6 µM | 5.99 µM | 20.8 µM | 12.2 µM | 37.9 µM | 10 µM | 29.7 µM | 16.2 µM | 33.3 µM | 4.89 µM | 25.5 µM
